Source: patent US20260138961A1, “MODULATORS OF MITOCHONDRIAL DNA REPLICATION” (Pretzel Therapeutics, Inc., priority 2022, published 2026)

molecular target: T1, POLγA:A467T (Homo sapiens, UniProt P54098, A467T); experiment: DNA polymerization assay, POLγA:A467T mutant; type: biochemical; settings: stimulation of polymerase activity, primed M13mp18 ssDNA, 37° C. 2 hours; read-out: A467T AC50
T1 sequence (P54098 1-1239 A467T): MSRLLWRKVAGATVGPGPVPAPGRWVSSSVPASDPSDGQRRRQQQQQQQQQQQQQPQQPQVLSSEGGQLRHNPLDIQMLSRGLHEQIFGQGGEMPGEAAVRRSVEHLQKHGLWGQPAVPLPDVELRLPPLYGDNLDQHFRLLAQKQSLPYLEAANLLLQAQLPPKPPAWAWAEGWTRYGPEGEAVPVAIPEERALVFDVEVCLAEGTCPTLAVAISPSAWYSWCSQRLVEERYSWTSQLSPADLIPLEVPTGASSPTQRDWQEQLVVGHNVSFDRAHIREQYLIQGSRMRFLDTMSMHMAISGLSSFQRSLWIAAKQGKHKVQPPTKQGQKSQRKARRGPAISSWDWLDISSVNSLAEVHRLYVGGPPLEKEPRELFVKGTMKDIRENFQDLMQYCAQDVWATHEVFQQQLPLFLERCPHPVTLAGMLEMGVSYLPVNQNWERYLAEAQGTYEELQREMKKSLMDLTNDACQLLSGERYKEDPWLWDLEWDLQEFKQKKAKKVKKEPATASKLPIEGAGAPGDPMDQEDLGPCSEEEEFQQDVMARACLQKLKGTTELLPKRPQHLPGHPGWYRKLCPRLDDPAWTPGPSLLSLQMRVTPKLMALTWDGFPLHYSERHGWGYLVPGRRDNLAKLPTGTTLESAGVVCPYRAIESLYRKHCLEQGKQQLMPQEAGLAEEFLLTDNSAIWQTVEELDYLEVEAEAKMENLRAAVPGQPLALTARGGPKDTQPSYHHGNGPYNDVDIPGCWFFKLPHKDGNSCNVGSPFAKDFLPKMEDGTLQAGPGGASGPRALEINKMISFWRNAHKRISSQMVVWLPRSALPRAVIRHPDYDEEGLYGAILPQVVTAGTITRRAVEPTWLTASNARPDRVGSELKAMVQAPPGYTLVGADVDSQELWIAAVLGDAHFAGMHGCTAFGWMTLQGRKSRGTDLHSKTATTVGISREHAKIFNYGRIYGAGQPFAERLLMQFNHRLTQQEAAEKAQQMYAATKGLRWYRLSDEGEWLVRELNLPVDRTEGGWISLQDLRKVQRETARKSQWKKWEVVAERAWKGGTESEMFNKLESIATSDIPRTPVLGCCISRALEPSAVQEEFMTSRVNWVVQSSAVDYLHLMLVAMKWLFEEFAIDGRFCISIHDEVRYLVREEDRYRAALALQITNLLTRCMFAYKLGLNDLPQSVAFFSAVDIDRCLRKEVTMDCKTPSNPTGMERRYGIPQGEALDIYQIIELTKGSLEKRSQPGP
T1 sequence (Q9UHN1 1-485 partner): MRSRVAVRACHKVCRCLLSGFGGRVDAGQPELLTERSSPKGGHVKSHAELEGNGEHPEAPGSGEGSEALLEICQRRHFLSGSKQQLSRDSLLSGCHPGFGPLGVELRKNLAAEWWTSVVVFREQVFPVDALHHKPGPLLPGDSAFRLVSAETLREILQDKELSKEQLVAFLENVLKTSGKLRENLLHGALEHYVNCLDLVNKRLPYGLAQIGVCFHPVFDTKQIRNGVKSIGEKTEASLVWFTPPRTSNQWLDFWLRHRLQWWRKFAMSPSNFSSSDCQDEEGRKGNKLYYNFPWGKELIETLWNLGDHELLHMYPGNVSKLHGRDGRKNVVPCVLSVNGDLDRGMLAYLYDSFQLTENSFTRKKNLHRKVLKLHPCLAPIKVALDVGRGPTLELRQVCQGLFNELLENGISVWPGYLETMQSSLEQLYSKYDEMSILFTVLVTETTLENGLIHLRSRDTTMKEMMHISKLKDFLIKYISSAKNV
Procedure: DNA Polymerization Assay to Monitor Effects on Human Wildtype POLγ and Four Disease-Causing Mutant Variants of Human POLγ.
The ability of small molecules to stimulate the polymerase activity of POLγ was analyzed in a quantitative fluorescence SYBR Green I assay with fluorescence intensity (FI) readout.
In the presence of dNTPs, wild type human POLγ and mutant derivatives thereof were incubated with single-stranded, circular M13mp18 ssDNA hybridized to a short DNA oligonucleotide that functions as a primer for initiation of DNA synthesis. POLγ and mutant derivatives thereof will extend the primer and use the M13mp18 molecule as a template to synthesize long stretches of double-stranded DNA. SYBR Green I, which is a double-stranded DNA-binding dye, was used to quantify formation of double-stranded DNA in the reaction. When bound to double-stranded DNA, SYBR Green I fluorescence increases by up to 100-fold.
The assay was performed in the 384-well plate format. Upon addition of compounds, changes in double-stranded DNA synthesis activity can be monitored by following effects on fluorescent intensity.
The reactions also contained the accessory POLγB subunit, and the human mitochondrial single-stranded DNA binding protein (mtSSB).
The DNA template mixture used in the assay contained 0.5 nM primed M13 mp18 ssDNA, 400 nM mtSSB, 0.1 mM Tris-HCl (pH 8.0), 0.1 mM dNTP, 10 mM MgCl2, 0.1 mg/mL BSA, 1 mM TCEP solution, and 0.02% Triton X-100. The DNA template mixture for the wild type protein contained either 100 μM dNTP, 1 μM dNTP, or 0.1 μM dNTP, designated in Table 2 as 100 μM, 1 μM, and 0.1 μM, respectfully.
Microplates with compounds (0.1 μL in each well) to be tested in the assay were prepared from 10 mM compound stocks in 100% DMSO, and equal amounts of DMSO without any compound were added to positive and negative control wells.
The protein mixture was dispensed (5 μL into each well) into compound plates and incubated at 37° C. for 15 minutes. After incubation, 5 μL of the DNA template mixture was dispensed into each well. The plates were then incubated at 37° C. for 2 hours.
During incubation, a combined stop buffer and detection reagent solution was prepared. The buffer contained 25 mM EDTA (pH 8.0), 0.02% Triton X-100, and SYBR Green I [Invitrogen] diluted 10,000× (for fluorescent readout). EDTA will stop the enzymatic reaction by chelating magnesium ions.

Row | AC50 | Structure (SMILES)
1 | 18 µM | Cc1cc(S(=O)(=O)Nc2cccc(C(=O)N3CCCC[C@H]3C)c2)c(C)cc1Cl [Example 9, (R)-4-chloro-2,5-dimethyl-N-(3-(2-methylpiperidine-1-carbonyl)phenyl)benzenesulfonamide]
2 | 5 µM | Cc1cc(S(=O)(=O)Nc2cccc(-c3nccs3)c2)c(C)cc1Cl [Example 16, 4-chloro-2,5-dimethyl-N-(3-(thiazol-2-yl)phenyl)benzenesulfonamide]
3 | > 100 µM | CNC(=O)c1cnc(-c2cccc(NS(=O)(=O)c3cc(C)c(Cl)cc3C)c2)s1 [Example 93, 2-(3-((4-chloro-2,5-dimethylphenyl)sulfonamido)phenyl)-N-methylthiazole-5-carboxamide]
4 | 17 µM | Cc1cc(S(=O)(=O)Nc2cccc(-c3ccn(C)n3)c2)c(C)cc1Cl [Example 18, 4-chloro-2,5-dimethyl-N-(3-(1-methyl-1H-pyrazol-3-yl)phenyl)benzenesulfonamide]
5 | 12 µM | Cc1cc(S(=O)(=O)Nc2cccc(C(=O)N3CCC[C@H]3C)c2)c(C)cc1Cl [Example 10, (R)-4-chloro-2,5-dimethyl-N-(3-(2-methylpyrrolidine-1-carbonyl)phenyl)benzenesulfonamide]
6 | 49 µM | Cc1cc(S(=O)(=O)Nc2cccc(C(=O)NCc3ccccc3)c2)c(C)cc1Cl [Example 11, N-benzyl-3-((4-chloro-2,5-dimethylphenyl)sulfonamido)benzamide]
7 | > 100 µM | Cc1cc(S(=O)(=O)Nc2cccc(C(=O)N3C[C@@H](F)C[C@H](F)C3)c2)c(C)cc1Cl [Example 115, 4-chloro-N-(3-((3S,5S)-3,5-difluoropiperidine-1-carbonyl)phenyl)-2,5-dimethylbenzenesulfonamide]
8 | > 100 µM | Cc1cc(Cl)ccc1S(=O)(=O)Nc1cccc(C(=O)N2CCC[C@H]2C)c1 [Example 116, (R)-4-chloro-2-methyl-N-(3-(2-methylpyrrolidine-1-carbonyl)phenyl)benzenesulfonamide]
9 | 33 µM | Cc1ccc(C)c(S(=O)(=O)Nc2cccc(C(=O)N3CCCC[C@H]3C)c2)c1 [Example 5, (R)-2,5-dimethyl-N-(3-(2-methylpiperidine-1-carbonyl)phenyl)benzenesulfonamide]
10 | 6 µM | Cc1cc(S(=O)(=O)Nc2cccc(-c3ncco3)c2)c(C)cc1Cl [Example 17, 4-chloro-2,5-dimethyl-N-(3-(oxazol-2-yl)phenyl)benzenesulfonamide]

Second part, the compound before the results:

Row | Structure (SMILES) | AC50
11 | O=S(=O)(Nc1csc(-c2ccccc2)n1)c1cccc2nccnc12 [Example 128, N-(2-phenylthiazol-4-yl)quinoxaline-5-sulfonamide] | > 100 µM
12 | Cc1cc(S(=O)(=O)N[C@@H]2CCCN(C(=O)[C@H]3CCCN3C)C2)c(C)cc1Cl [Example 100, 4-chloro-2,5-dimethyl-N-((R)-1-(methyl-D-prolyl)piperidin-3-yl)benzenesulfonamide] | > 100 µM
13 | Cc1cc(S(=O)(=O)Nc2cccc(-c3ncc(C#N)s3)c2)c(C)cc1Cl [Example 96, 4-chloro-N-(3-(5-cyanothiazol-2-yl)phenyl)-2,5-dimethylbenzenesulfonamide] | 24 µM
14 | Cc1cc(S(=O)(=O)Nc2csc(-c3ccccc3)n2)c(Cl)cc1F [Example 136, 2-chloro-4-fluoro-5-methyl-N-(2-phenylthiazol-4-yl)benzenesulfonamide] | 5 µM
15 | O=S(=O)(Nc1csc(-c2ccccc2)n1)c1ccccn1 [Example 139, N-(2-phenylthiazol-4-yl)pyridine-2-sulfonamide] | > 100 µM
16 | Cc1cc(S(=O)(=O)Nc2nc(-c3ccccc3)no2)c(C)cc1Cl [Example 143, 4-chloro-2,5-dimethyl-N-(3-phenyl-1,2,4-oxadiazol-5-yl)benzenesulfonamide] | > 100 µM
17 | O=S(=O)(Nc1csc(-c2ccccc2)n1)c1ccc(F)cc1F [Example 140, 2,4-difluoro-N-(2-phenylthiazol-4-yl)benzenesulfonamide] | > 100 µM
18 | O=S(=O)(Nc1csc(-c2ccccc2)n1)c1ccc(F)cc1Cl [Example 126, 2-chloro-4-fluoro-N-(2-phenylthiazol-4-yl)benzenesulfonamide] | 32 µM
19 | O=S(=O)(Nc1csc(-c2ccccc2)n1)c1ccccc1Cl [Example 125, 2-chloro-N-(2-phenylthiazol-4-yl)benzenesulfonamide] | 8 µM
20 | Cc1cc(S(=O)(=O)N[C@H]2CCCN(C(=O)[C@@H]3CCCN3C)C2)c(C)cc1Cl [Example 101, 4-chloro-2,5-dimethyl-N-((S)-1-(methyl-L-prolyl)piperidin-3-yl)benzenesulfonamide] | > 100 µM
21 | O=S(=O)(Nc1csc(-c2ccccc2)n1)c1cccc(C(F)(F)F)c1 [Example 151, N-(2-phenylthiazol-4-yl)-3-(trifluoromethyl)benzenesulfonamide] | > 100 µM
22 | Cc1cc(S(=O)(=O)Nc2csc(-c3ccccc3)n2)ccc1Cl [Example 148, 4-chloro-3-methyl-N-(2-phenylthiazol-4-yl)benzenesulfonamide] | > 100 µM
23 | Cc1cnc(-c2ccc(C)c(NS(=O)(=O)c3cc(C)c(Cl)cc3C)c2)s1 [Example 98, 4-chloro-2,5-dimethyl-N-(2-methyl-5-(5-methylthiazol-2-yl)phenyl)benzenesulfonamide] | > 100 µM
24 | O=S(=O)(Nc1csc(-c2ccccc2)n1)c1ccccc1 [Example 147, N-(2-phenylthiazol-4-yl)benzenesulfonamide] | > 100 µM
25 | O=S(=O)(Nc1csc(-c2ccccc2)n1)c1ccc(C(F)(F)F)cc1 [Example 127, N-(2-phenylthiazol-4-yl)-4-(trifluoromethyl)benzenesulfonamide] | > 100 µM
26 | Cc1cnc(-c2ccc(Cl)c(NS(=O)(=O)c3cc(C)c(Cl)cc3C)c2)s1 [Example 102, 4-chloro-N-(2-chloro-5-(5-methylthiazol-2-yl)phenyl)-2,5-dimethylbenzenesulfonamide] | > 100 µM
